Test results published in patent US8710065B2, “Tricyclic inhibitors of kinases” (AbbVie Inc., priority 2011, dated 2014).

These molecules were tested against T1, GST-tagged-Wee1 kinase (Homo sapiens, UniProt P30291) (assay: Wee1 time-resolved fluorescence equilibrium binding assay (displacement of Oregon Green-labeled ATP-competitive kinase probe)). Details: read-out: Wee-1 inhibition (Ki).
T1 construct: purchased Carnabio (Carna Biosciences) 05-177
Protocol: Wee1 kinase was assayed using a time-resolved fluorescence equilibrium binding assay monitoring displacement of a rapidly reversible Oregon Green-labeled ATP-competitive kinase probe (N-(2-(2-(2-(4-(4-(5-chloro-4-(2-(1-hydroxycyclobutyl)thiazol-5-yl)-1H-pyrrolo[2,3-b]pyridin-2-yl)phenyl)piperazin-1-yl)ethoxy)ethoxy)ethyl)-2′,7′-difluoro-3′,6′-dihydroxy-3-oxo-3H-spiro[isobenzofuran-1,9′-xanthene]-5-carboxamide) by competitive Wee1 inhibitors.
Table 1 depicts enzyme inhibition data (Ki) for exemplary compounds.

T1 sequence (P30291 whole entry): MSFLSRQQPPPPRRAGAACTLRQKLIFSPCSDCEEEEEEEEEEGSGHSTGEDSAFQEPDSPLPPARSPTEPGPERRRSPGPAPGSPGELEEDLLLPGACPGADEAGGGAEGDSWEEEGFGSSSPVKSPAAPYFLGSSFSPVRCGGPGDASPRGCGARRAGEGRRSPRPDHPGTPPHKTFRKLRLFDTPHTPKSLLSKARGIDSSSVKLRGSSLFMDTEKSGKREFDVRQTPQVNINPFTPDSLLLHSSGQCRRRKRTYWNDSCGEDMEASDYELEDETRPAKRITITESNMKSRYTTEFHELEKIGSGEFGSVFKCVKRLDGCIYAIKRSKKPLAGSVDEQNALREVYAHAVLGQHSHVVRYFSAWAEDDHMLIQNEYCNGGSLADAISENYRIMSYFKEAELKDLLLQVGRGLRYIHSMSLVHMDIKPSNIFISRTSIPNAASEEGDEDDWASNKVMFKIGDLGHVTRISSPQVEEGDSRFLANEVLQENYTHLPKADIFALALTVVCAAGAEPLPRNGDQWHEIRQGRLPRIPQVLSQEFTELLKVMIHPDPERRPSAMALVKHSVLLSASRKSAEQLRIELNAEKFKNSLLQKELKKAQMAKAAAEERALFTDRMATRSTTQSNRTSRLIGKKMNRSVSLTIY

SMILES	Ki [nM]
CN1CCN(C(=O)c2ccc(Nc3ncc4c(=O)n(-c5ccccc5Cl)c5nccn5c4n3)cc2)CC1 [Example 42, 6-(2-chlorophenyl)-2-({4-[(4-methylpiperazin-1-yl)carbonyl]phenyl}amino)imidazo[1,2-a]pyrimido[5,4-e]pyrimidin-5(6H)-one]	10 to 100
O=c1c2cnc(Nc3ccc(-c4cn[nH]c4)cc3)nc2n2ccnc2n1-c1ccccc1Cl [Example 43, 6-(2-chlorophenyl)-2-{[4-(1H-pyrazol-4-yl)phenyl]amino}imidazo[1,2-a]pyrimido[5,4-e]pyrimidin-5(6H)-one]	10 to 100
O=c1c2cnc(Nc3ccc(-c4cccnc4)cc3)nc2n2ccnc2n1-c1ccccc1Cl [Example 45, 6-(2-chlorophenyl)-2-{[4-(pyridin-3-yl)phenyl]amino}imidazo[1,2-a]pyrimido[5,4-e]pyrimidin-5(6H)-one]	10 to 100
O=C(N[C@H]1CC[C@H](O)CC1)c1ccc(Nc2ncc3c(=O)n(-c4ccccc4Cl)c4nccn4c3n2)cc1 [Example 46, 4-{[6-(2-chlorophenyl)-5-oxo-5,6-dihydroimidazo[1,2-a]pyrimido[5,4-e]pyrimidin-2-yl]amino}-N-(trans-4-hydroxycyclohexyl)benzamide]	10 to 100
CCNC(=O)c1ccc(Nc2ncc3c(=O)n(-c4ccccc4Cl)c4nccn4c3n2)cc1 [Example 47, 4-{[6-(2-chlorophenyl)-5-oxo-5,6-dihydroimidazo[1,2-a]pyrimido[5,4-e]pyrimidin-2-yl]amino}-N-ethylbenzamide]	10 to 100
O=C(c1ccc(Nc2ncc3c(=O)n(-c4ccccc4Cl)c4nccn4c3n2)cc1)N1CCC(O)CC1 [Example 48, 6-(2-chlorophenyl)-2-({4-[(4-hydroxypiperidin-1-yl)carbonyl]phenyl}amino)imidazo[1,2-a]pyrimido[5,4-e]pyrimidin-5(6H)-one]	10 to 100
O=C(Nc1ccncc1)c1ccc(Nc2ncc3c(=O)n(-c4ccccc4Cl)c4nccn4c3n2)cc1 [Example 49, 4-{[6-(2-chlorophenyl)-5-oxo-5,6-dihydroimidazo[1,2-a]pyrimido[5,4-e]pyrimidin-2-yl]amino}-N-(pyridin-4-yl)benzamide]	10 to 100
Cc1c(O)cccc1-n1c(=O)c2cnc(Nc3ccccc3)nc2n2ccnc12 [Example 54, 6-(3-hydroxy-2-methylphenyl)-2-(phenylamino)imidazo[1,2-a]pyrimido[5,4-e]pyrimidin-5(6H)-one]	10 to 100
Nc1ccc(Nc2ncc3c(=O)n(-c4ccccc4Cl)c4nccn4c3n2)cc1 [Example 56, 2-[(4-aminophenyl)amino]-6-(2-chlorophenyl)imidazo[1,2-a]pyrimido[5,4-e]pyrimidin-5(6H)-one]	10 to 100
CC(=O)Nc1ccc(Nc2ncc3c(=O)n(-c4ccccc4Cl)c4nccn4c3n2)cc1 [Example 57, N-(4-{[6-(2-chlorophenyl)-5-oxo-5,6-dihydroimidazo[1,2-a]pyrimido[5,4-e]pyrimidin-2-yl]amino}phenyl)acetamide]	10 to 100
O=C(Nc1ccc(Nc2ncc3c(=O)n(-c4ccccc4Cl)c4nccn4c3n2)cc1)C1CCCC1 [Example 58, N-(4-{[6-(2-chlorophenyl)-5-oxo-5,6-dihydroimidazo[1,2-a]pyrimido[5,4-e]pyrimidin-2-yl]amino}phenyl)cyclopentanecarboxamide]	10 to 100
O=C(Nc1ccc(Nc2ncc3c(=O)n(-c4ccccc4Cl)c4nccn4c3n2)cc1)C1CCC(O)CC1 (stereo not shown) [Example 59, N-(4-{[6-(2-chlorophenyl)-5-oxo-5,6-dihydroimidazo[1,2-a]pyrimido[5,4-e]pyrimidin-2-yl]amino}phenyl)-4-hydroxycyclohexanecarboxamide]	10 to 100
O=c1c2cnc(Nc3ccc(N4CCN(Cc5cccc(Cl)c5)CC4)cc3)nc2n2ccnc2n1-c1ccccc1Cl [Example 63, 2-({4-[4-(3-chlorobenzyl)piperazin-1-yl]phenyl}amino)-6-(2-chlorophenyl)imidazo[1,2-a]pyrimido[5,4-e]pyrimidin-5(6H)-one]	10 to 100

The next lines start with the values.

Ki [nM]	SMILES
< 10	CC(C)N1CCN(c2ccc(Nc3ncc4c(=O)n(-c5ccccc5Cl)c5nccn5c4n3)cc2F)CC1 [Example 33, 6-(2-chlorophenyl)-2-({3-fluoro-4-[4-(propan-2-yl)piperazin-1-yl]phenyl}amino)imidazo[1,2-a]pyrimido[5,4-e]pyrimidin-5(6H)-one]
< 10	CN1CCc2ccc(Nc3ncc4c(=O)n(-c5ccccc5Cl)c5nccn5c4n3)cc2C1 [Example 34, 6-(2-chlorophenyl)-2-[(2-methyl-1,2,3,4-tetrahydroisoquinolin-7-yl)amino]imidazo[1,2-a]pyrimido[5,4-e]pyrimidin-5(6H)-one]
< 10	CN(C)CCOc1ccc(Nc2ncc3c(=O)n(-c4ccccc4Cl)c4nccn4c3n2)cc1 [Example 35, 6-(2-chlorophenyl)-2-({4-[2-(dimethylamino)ethoxy]phenyl}amino)imidazo[1,2-a]pyrimido[5,4-e]pyrimidin-5(6H)-one]
10 to 100	O=c1c2cnc(Nc3ccc(OCCN4CCOCC4)cc3)nc2n2ccnc2n1-c1ccccc1Cl [Example 36, 6-(2-chlorophenyl)-2-({4-[2-(morpholin-4-yl)ethoxy]phenyl}amino)imidazo[1,2-a]pyrimido[5,4-e]pyrimidin-5(6H)-one]
< 10	Cc1cc(Nc2ncc3c(=O)n(-c4ccccc4Cl)c4nccn4c3n2)ccc1N1CCCN(C)CC1 [Example 37, 6-(2-chlorophenyl)-2-{[3-methyl-4-(4-methyl-1,4-diazepan-1-yl)phenyl]amino}imidazo[1,2-a]pyrimido[5,4-e]pyrimidin-5(6H)-one]
< 10	CN1CCC(c2ccc(Nc3ncc4c(=O)n(-c5ccccc5Cl)c5nccn5c4n3)cc2)CC1 [Example 38, 6-(2-chlorophenyl)-2-{[4-(1-methylpiperidin-4-yl)phenyl]amino}imidazo[1,2-a]pyrimido[5,4-e]pyrimidin-5(6H)-one]
10 to 100	CN1CCN(c2ccc(Nc3ncc4c(=O)n(-c5ccccc5)c5nccn5c4n3)cc2)CC1 [Example 39, 2-{[4-(4-methylpiperazin-1-yl)phenyl]amino}-6-phenylimidazo[1,2-a]pyrimido[5,4-e]pyrimidin-5(6H)-one]
< 10	Cc1ccc(-n2c(=O)c3cnc(Nc4ccc(N5CCN(C)CC5)cc4)nc3n3ccnc23)c(Cl)c1 [Example 40, 6-(2-chloro-4-methylphenyl)-2-{[4-(4-methylpiperazin-1-yl)phenyl]amino}imidazo[1,2-a]pyrimido[5,4-e]pyrimidin-5(6H)-one]
10 to 100	O=C(NC1CCCCC1)c1ccc(Nc2ncc3c(=O)n(-c4ccccc4Cl)c4nccn4c3n2)cc1 [Example 41, 4-{[6-(2-chlorophenyl)-5-oxo-5,6-dihydroimidazo[1,2-a]pyrimido[5,4-e]pyrimidin-2-yl]amino}-N-cyclohexylbenzamide]
< 10	CCN(CC)CCOc1ccc(Nc2ncc3c(=O)n(-c4ccccc4Cl)c4nccn4c3n2)cc1 [Example 44, 6-(2-chlorophenyl)-2-({4-[2-(diethylamino)ethoxy]phenyl}amino)imidazo[1,2-a]pyrimido[5,4-e]pyrimidin-5(6H)-one]
< 10	CCN(CC)CCCOc1ccc(Nc2ncc3c(=O)n(-c4ccccc4Cl)c4nccn4c3n2)cc1F [Example 50, 6-(2-chlorophenyl)-2-({4-[3-(diethylamino)propoxy]-3-fluorophenyl}amino)imidazo[1,2-a]pyrimido[5,4-e]pyrimidin-5(6H)-one]
< 10	CN1CCN(CCOc2ccc(Nc3ncc4c(=O)n(-c5ccccc5Cl)c5nccn5c4n3)cc2F)CC1 [Example 51, 6-(2-chlorophenyl)-2-({3-fluoro-4-[2-(4-methylpiperazin-1-yl)ethoxy]phenyl}amino)imidazo[1,2-a]pyrimido[5,4-e]pyrimidin-5(6H)-one]
< 10	COCCN1CCc2ccc(Nc3ncc4c(=O)n(-c5ccccc5Cl)c5nccn5c4n3)cc2C1 [Example 52, 6-(2-chlorophenyl)-2-{[2-(2-methoxyethyl)-1,2,3,4-tetrahydroisoquinolin-7-yl]amino}imidazo[1,2-a]pyrimido[5,4-e]pyrimidin-5(6H)-one]
< 10	CN1Cc2cc(Nc3ncc4c(=O)n(-c5ccccc5Cl)c5nccn5c4n3)ccc2C(C)(C)C1 [Example 53, 6-(2-chlorophenyl)-2-[(2,4,4-trimethyl-1,2,3,4-tetrahydroisoquinolin-7-yl)amino]imidazo[1,2-a]pyrimido[5,4-e]pyrimidin-5(6H)-one]
< 10	CN1CCN(c2ccc(Nc3ncc4c(=O)n(-c5c(Cl)cccc5Cl)c5nccn5c4n3)cc2)CC1 [Example 55, 6-(2,6-dichlorophenyl)-2-{[4-(4-methylpiperazin-1-yl)phenyl]amino}imidazo[1,2-a]pyrimido[5,4-e]pyrimidin-5(6H)-one]
< 10	CN1CCC(C(=O)Nc2ccc(Nc3ncc4c(=O)n(-c5ccccc5Cl)c5nccn5c4n3)cc2)CC1 [Example 60, N-(4-{[6-(2-chlorophenyl)-5-oxo-5,6-dihydroimidazo[1,2-a]pyrimido[5,4-e]pyrimidin-2-yl]amino}phenyl)-1-methylpiperidine-4-carboxamide]
< 10	O=C(Nc1ccc(Nc2ncc3c(=O)n(-c4ccccc4Cl)c4nccn4c3n2)cc1)c1ccncc1 [Example 61, N-(4-{[6-(2-chlorophenyl)-5-oxo-5,6-dihydroimidazo[1,2-a]pyrimido[5,4-e]pyrimidin-2-yl]amino}phenyl)pyridine-4-carboxamide]
< 10	Cc1cccc(C)c1-n1c(=O)c2cnc(Nc3ccc4c(c3)CN(C)CC43CC3)nc2n2ccnc12 [Example 62, 6-(2,6-dimethylphenyl)-2-[(2′-methyl-2′,3′-dihydro-1′H-spiro[cyclopropane-1,4′-isoquinolin]-7′-yl)amino]imidazo[1,2-a]pyrimido[5,4-e]pyrimidin-5(6H)-one]
